Source: US6506772B1, “Substituted [1,2,4]triazolo[1,5a]pyridine derivatives with activity as adenosine receptor ligands” (Hoffmann-La Roche Inc., priority 2000, dated 2003)

How the values were obtained:
HA1 adenosine receptor = target: T1, HA1 adenosine receptor (Homo sapiens, UniProt P30542); assay: Human adenosine A1 receptor affinity (Ki hA1); format: binding
T1 sequence (P30542 1-326): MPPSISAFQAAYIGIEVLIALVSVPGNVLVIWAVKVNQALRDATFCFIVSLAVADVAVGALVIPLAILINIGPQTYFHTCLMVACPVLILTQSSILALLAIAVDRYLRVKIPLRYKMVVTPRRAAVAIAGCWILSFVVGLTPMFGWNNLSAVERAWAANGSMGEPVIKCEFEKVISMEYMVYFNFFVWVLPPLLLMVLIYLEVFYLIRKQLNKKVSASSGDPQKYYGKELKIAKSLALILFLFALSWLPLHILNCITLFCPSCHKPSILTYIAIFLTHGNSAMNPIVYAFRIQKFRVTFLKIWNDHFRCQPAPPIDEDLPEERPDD

[1] = target: T2, human adenosine A2A receptor (Homo sapiens, UniProt P29274); assay: Human adenosine A2A receptor [3H]-SCH-58261 binding assay; conditions: for selectivity (A1/A2a): ratio KiHA1 divided by KiHA2A; for Ki: recombinant human A2A in CHO cell membranes, [3H]-SCH-58261, Cheng-Prussoff, read-out: Ki hA2A
T2 construct: expressed in transfected cells; host or cells: CHO cells, Semliki Forest virus expression system; membrane preparation
T2 sequence (P29274 whole entry): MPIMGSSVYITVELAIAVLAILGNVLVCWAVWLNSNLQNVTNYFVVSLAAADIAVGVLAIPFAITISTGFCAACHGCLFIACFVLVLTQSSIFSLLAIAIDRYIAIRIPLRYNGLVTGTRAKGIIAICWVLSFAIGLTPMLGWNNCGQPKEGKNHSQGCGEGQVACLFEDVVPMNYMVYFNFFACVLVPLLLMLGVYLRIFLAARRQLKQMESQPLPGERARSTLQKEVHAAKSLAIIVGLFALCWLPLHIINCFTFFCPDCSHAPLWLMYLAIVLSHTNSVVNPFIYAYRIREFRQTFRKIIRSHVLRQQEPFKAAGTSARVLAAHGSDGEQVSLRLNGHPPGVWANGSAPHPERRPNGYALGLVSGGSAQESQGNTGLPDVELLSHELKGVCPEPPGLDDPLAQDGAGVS

| Compound | Ki (HA1 adenosine receptor) | selectivity (A1/A2a) [1] | Ki [1] |
| --- | --- | --- | --- |
| CCCN(C)C(=O)c1cc(N)n2nc(-c3ccccn3)nc2c1 [Example 412, 5-Amino-2-pyridin-2-yl-[1,2,4]triazolo[1,5-a]pyridine-7-carboxylic acid methyl-propyl-amide] | 3020 nM | 25.4 | 119 nM |
| CC1CCCN1C(=O)c1cc(N)n2nc(-c3ccccn3)nc2c1 (stereo not drawn) [Example 413, (5-Amino-2-pyridin-2-yl-[1,2,4]triazolo[1,5-a]pyridin-7-yl)-(2-methyl-pyrrolidin-1-yl)-methanone] | 1430 nM | 37.8 | 37.8 nM |
| CCN(C(=O)c1cc(N)n2nc(-c3ccccn3)nc2c1)C(C)C [Example 414, 5-Amino-2-pyridin-2-yl-[1,2,4]triazolo[1,5-a]pyridine-7-carboxylic acid ethyl-isopropyl-amide] | 885 nM | 15.8 | 56 nM |
| CC1C=CC(C)N1C(=O)c1cc(N)n2nc(-c3ccccn3)nc2c1 (stereo not drawn) [Example 415, (5-Amino-2-pyridin-2-yl-[1,2,4]triazolo[1,5-a]pyridin-7-yl)-(2,5-dimethyl-2,5-dihydro-pyrrol-1-yl)-methanone] | 274 nM | 3.6 | 75.4 nM |
| C=CCN(CC=C)C(=O)c1cc(N)n2nc(-c3ccccn3)nc2c1 [Example 416, 5-Amino-2-pyridin-2-yl-[1,2,4]triazolo[1,5-a]pyridine-7-carboxylic acid diallylamide] | 835 nM | 17.4 | 48.1 nM |
| Nc1cc(C(=O)N2CCCCCC2)cc2nc(-c3ccccn3)nn12 [Example 417, (5-Amino-2-pyridin-2-yl-[1,2,4]triazolo[1,5-a]pyridin-7-yl)-azepan-1-yl-methanone] | 532 nM | 31.5 | 16.9 nM |
| CC1CCCCN1C(=O)c1cc(N)n2nc(-c3ccccn3)nc2c1 (stereo not drawn) [Example 418, (5-amino-2-pyridin-2-yl-[1,2,4]triazolo[1,5-a]pyridin-7-yl)-(2-methyl-piperidin-1-yl)-methanone] | 1020 nM | 24.2 | 42.4 nM |
| CC1CCCN(C(=O)c2cc(N)n3nc(-c4ccccn4)nc3c2)C1 (stereo not drawn) [Example 419, (5-Amino-2-pyridin-2-yl-[1,2,4]triazolo[1,5-a]pyridin-7-yl)-(3-methyl-piperidin-1-yl)-methanone] | 1600 nM | 35.5 | 44.9 nM |
| CCCN(CCC)C(=O)c1cc(N)n2nc(-c3ccccn3)nc2c1 [Example 420, 5-Amino-2-pyridin-2-yl-[1,2,4]triazolo[1,5-a]pyridine-7-carboxylic acid dipropylamide] | 1810 nM | 17.5 | 103 nM |
| CCCCN(CC)C(=O)c1cc(N)n2nc(-c3ccccn3)nc2c1 [Example 421, 5-Amino-2-pyridin-2-yl-[1,2,4]triazolo[1,5-a]pyridine-7-carboxylic acid butyl-ethyl-amide] | 1360 nM | 15.9 | 85.7 nM |
| Nc1cc(C(=O)N2CCCCCCC2)cc2nc(-c3ccccn3)nn12 [Example 422, (5-Amino-2-pyridin-2-yl-[1,2,4]triazolo[1,5-a]pyridin-7-yl)-azocan-1-yl-methanone] | 372 nM | 21.4 | 17.4 nM |
| CC1CC(C)CN(C(=O)c2cc(N)n3nc(-c4ccccn4)nc3c2)C1 (stereo not drawn) [Example 423, (5-Amino-2-pyridin-2-yl-[1,2,4]triazolo[1,5-a]pyridin-7-yl)-(3,5-dimethyl-piperidin-1-yl)-methanone] | 832 nM | 24.6 | 33.8 nM |
| CCCN(CC1CC1)C(=O)c1cc(N)n2nc(-c3ccccn3)nc2c1 [Example 424, 5-Amino-2-pyridin-2-yl-[1,2,4]triazolo[1,5-a]pyridine-7-carboxylic acid cyclopropylmethyl-propyl-amide] | 878 nM | 17.7 | 49.6 nM |
